Values joined by “and” are separate entries in the source; they are usually repeats but may differ in a detail not shown here. Equal values may be shown once. Read-outs that look alike come from different tables or passages of the source.
Key:
[1] = Tensiometry (Du Nouy ring), surface tension isotherms; format: physicochemical
Method: The surface tension isotherms of the micellar solutions were determined using the Du Nouy platinum ring detachment method on a K6 tensiometer (KRŰSS GmbH, Hamburg, Germany). For the experiment, surfactant solutions with a volume of 10 mL were prepared. The measurements were carried out strictly at 298 K in glass beakers, the diameter of which exceeded the diameter of the platinum ring. Surface tension measurements were carried out until stable values were obtained. After each measurement, the ring was degreased in ethanol and thoroughly dried. The cmc of the micellar solutions was determined from the breakpoint on the isotherm of surface tension versus surfactant concentration. The thermodynamic parameters of adsorption and micellization were calculated for all systems based on the obtained tensiometric curves.

Conductometry = format: physicochemical; conditions: 298 K
Method: The electrical conductivity of the micellar solutions was determined on an InoLab Cond 7110 conductometer (WTW, Weilheim, Germany). For the experiment, surfactant solutions with a volume of 10 mL were prepared. The electrical conductivity of all solutions was recorded at 298 K, and the electrode was washed with purified water after each measurement. The cmc was determined from the breakpoint of the dependence of electrical conductivity on the concentration of surfactants.

Pyrene fluorimetry = format: physicochemical; conditions: 298 K
Method: To determine cmc by fluorimetry, a hydrophobic probe pyrene was added to a series of surfactant solutions at a concentration of 1 μM. The solutions were kept for 30–40 min for complete solubilization of the probe. The fluorescent emission spectra of pyrene were recorded on an F-7100 fluorimeter (Hitachi, Tokyo, Japan) using 10 × 4 mm quartz cuvette (Hellma Analytics, Müllheim, Germany) with the following settings: λex = 335 nm, λem = 350–600 nm, and scanning speed = 1200 nm/min. The cmc was calculated from the dependence of the pyrene polarity index (the ratio of the intensities of the first (373 nm) and third (383 nm) peaks) on the surfactant concentration.

[2] = Orange OT solubilization, spectrophotometry (Schott method for Nagg); format: physicochemical
Method: (§1) The cmc and the solubilizing capacity (S) of surfactants were determined using the spectral azo dye OOT and the non-steroidal anti-inflammatory drug IND. To obtain a saturated solution, an excess of OOT and IND was added to 2 mL of a surfactant solution, stirred, and kept for 48 and 24 h, respectively. After that, the solutions were filtered using Millex® Syringe Filters (Millipore, Burlington, MA, USA) with a pore size of 450 nm, and the optical density was measured. The absorption spectra were recorded on a Specord 250 Plus spectrophotometer (Analytik Jena AG, Jena, Germany). Quartz cells with a thickness of 1 and 0.5 cm (Hellma Analytics, Müllheim, Germany) were used for measurements.
(§2) The solubilizing capacity (S) was determined using the following formula:S = b/ε, where b is D/l = f (Csurf) dependency slope (above cmc), ε is the extinction coefficient (17,400 L/mol∙cm for OOT, and the extinction coefficients of IND are determined in GS solutions and presented in Figure S10).
The OOT solubilization method (Schott method) was used to calculate the micelle Nagg. The Nagg values were calculated for each point on the curve of dependence of the OOT-reduced optical density on the surfactant concentration above the cmc according to the presented formula:[…], where ε is the extinction coefficient of OOT, Csurf is the surfactant concentration above cmc, and D is the optical density.

[3] = Indomethacin solubilization, spectrophotometry; format: physicochemical; conditions: 298 K
Method: as §1, §2

[4] = system: Staphylococcus aureus ATCC 6538P FDA 209P; test: Antimicrobial activity (Sa); format: cell-based; conditions: Staphylococcus aureus
Method: (§3) The antimicrobial activity of the compounds was tested on Gram-positive Staphylococcus aureus ATCC 6538P FDA 209P (Sa), Bacillus cereus ATCC 10702 NCTC 8035 (Bc), Enterococcus faecalis ATCC 29212 (Ef), and Gram-negative bacteria Escherichia coli ATCC 25922 (Ec), Pseudomonas aeruginosa ATCC 9027 (Pa), including methicillin-resistant strains of S. aureus MRSA-1 (resistant to fluoroquinolones and beta-lactams) and MRSA-2 (resistant to beta-lactams). Antifungal activity was studied against Candida albicans ATCC 10231 (Ca), Trichophyton mentagrophytes var. gypseum 1773 (Tm), and Aspergillus niger BKMF-1119 (An). A more detailed description of the experiment is published in [21].

[5] = system: Enterococcus faecalis ATCC 29212; test: Antimicrobial activity (Ef); format: cell-based; conditions: Enterococcus faecalis
Method: as §3

[6] = system: methicillin-resistant S. aureus MRSA-1 (resistant to fluoroquinolones and beta-lactams); test: Antimicrobial activity (MRSA-1); format: cell-based; conditions: Staphylococcus aureus, MRSA
Method: as §3

[7] = system: methicillin-resistant S. aureus MRSA-2 (resistant to beta-lactams); test: Antimicrobial activity (MRSA-2); format: cell-based; conditions: Staphylococcus aureus, MRSA
Method: as §3

[8] = system: Escherichia coli ATCC 25922; test: Antimicrobial activity (Ec); format: cell-based; conditions: Escherichia coli
Method: as §3

[9] = system: Candida albicans ATCC 10231; test: Antifungal activity (Ca); format: cell-based; conditions: Candida albicans
Method: as §3

[10] = system: Trichophyton mentagrophytes var. gypseum 1773; test: Antifungal activity (Tm); format: cell-based; conditions: Trichophyton mentagrophytes
Method: as §3

[11] = system: Aspergillus niger BKMF-1119; test: Antifungal activity (An); format: cell-based; conditions: Aspergillus niger
Method: as §3

## CCCCCCCCCCCCCC[N+](C)(CCCCCCCCCCCC[N+](C)(CCCCCCCCCCCCCC)CCOC(=O)NCC)CCOC(=O)NCC (centres unmarked) [14-12-14(Et)]
[1]; 298 K
  Amin (surface area per surfactant molecule): 0.52 nm^2
  Гmax∙10^6 (maximum surface excess): 3.21 mol∙m^−2
  ∆Gmic (free energy of micellization): -37.0 kJ/mol
[1]; air/water interface
  calculated adsorption layer thickness: 3.3 nm
[1]; tensiometry, 298 K
  cmctens: 0.013 mM and 0.013 ± 0.0007 mM
Conductometry
  cmccond: 0.05 mM and 0.05 ± 0.0013 mM
  βcond (degree of counterion binding): 0.44
Pyrene fluorimetry
  cmc, Fluorimetry: 0.014 mM and 0.014 ± 0.0004 mM
[2]
  S (solubilizing capacity), OOT: 0.047 molOOT/molGS
[2]; 298 K
  S (solubilizing capacity), OOT: 0.047 molprobe/molGS
[2]; OOT, 298 K
  cmc, Spectrophotometry: 0.045 ± 0.003 mM
[2]; Schott approach, OOT solubilization, 298 K
  Nagg (aggregation number): 16
[3]
  S (solubilizing capacity), IND: 1.51 molprobe/molGS
[4]; read-out: MBC, Sa
  MBC: 3.9 ± 0.3 µg/mL
[4]; read-out: MIC, Sa
  MIC: 3.9 ± 0.2 µg/mL
[5]; ATCC29212, read-out: MBC, Ef
  MBC: 3.9 ± 0.2 µg/mL
[5]; ATCC29212, read-out: MIC, Ef
  MIC: 3.9 ± 0.3 µg/mL
[6]; read-out: MBC, MRSA-1
  MBC: 7.8 ± 0.6 µg/mL
[6]; read-out: MIC, MRSA-1
  MIC: 7.8 ± 0.6 µg/mL
[7]; read-out: MBC, MRSA-2
  MBC: 7.8 ± 0.7 µg/mL
[7]; read-out: MIC, MRSA-2
  MIC: 7.8 ± 0.7 µg/mL
[8]; ATCC25922, read-out: MBC, Ec
  MBC: 31.3 ± 2.6 µg/mL
[8]; ATCC25922, read-out: MIC, Ec
  MIC: 31.3 ± 2.5 µg/mL
[9]; ATCC10231, read-out: MFC, Ca
  MFC: 250 ± 21 µg/mL
[9]; ATCC10231, read-out: MIC, Ca
  MIC: 250 ± 19 µg/mL
[10]; read-out: MFC, Tm
  MFC: 250 ± 18 µg/mL
[10]; read-out: MIC, Tm
  MIC: 250 ± 19 µg/mL
[11]; BKMF1119, read-out: MFC, An
  MFC: > 250 µg/mL
[11]; BKMF1119, read-out: MIC, An
  MIC: > 250 µg/mL

— paper PMC10419252, “Synthesis, Properties, and Biomedical Application of Dicationic Gemini Surfactants with Dodecane Spacer and Carbamate Fragments” (International Journal of Molecular Sciences, 2023)
